From patent publication US20080221070A1, “METHODS AND COMPOUNDS FOR THE TARGETED DELIVERY OF AGENTS TO BONE FOR INTERACTION THEREWITH” (priority 2007, published 2008)

What was measured:
[1] = Hydroxyapatite (HA) Binding Assay; details: binding to hydroxyapatite; 10^−5 M analyte, 50 mM Tris-HCl pH 7.4, 1% DMSO; tetracycline reference
From the text: The supernatant was transferred to another microcentrifuge tube.

[2] = system: bilaterally ovariectomized (OVX) rats; assay: RatLaps ELISA for C-telopeptide fragments of collagen type I (CTX-I) in serum; format: in vivo, Sprague-Dawley female rats; details: Formulas 66 and 67 at 250 μg/kg doses, 17-ethinyl estradiol equimolar, FIG. 16
Description: (§1) Animals. Six month old, bilaterally ovariectomized (OVX) or sham operated Sprague-Dawley female rats (Harlan Laboratories, Indianapolis, Ind.) were maintained at the University of Louisville Research Resources Center at 22° C. with a 12-h light/dark cycle and ad libitum access to tap water and rodent chow (Purina Laboratory Rodent Diet 5001). All animal procedures were approved by the Institutional Animal Care and Use Committee, which is certified by the American Association for Accreditation of Laboratory Animal Care.
(§2) In vivo experiments were conducted in order to investigate the efficacy of compounds of the presently-disclosed subject matter. In all of the experiments, OVX and sham operated rats were randomly divided into groups of 5-7 animals. In all of the studies experimental groups included: i) Sham-operated control (euthanized six weeks post surgery as a pretreatment control), ii) OVX control (euthanized six weeks post surgery as a pretreatment control), iii) Sham control receiving vehicle, iv) OVX control receiving vehicle, v) OVX receiving 17-ethinyl estradiol (equimolar concentration with a selected test compound), vi) OVX receiving alendronate (1.6 mg/kg), and vii) OVX receiving parathyroid hormone 1-34 (PTH) (80 μg/kg). 17-ethinyl estradiol (17 EE) is a free estrogenic agent known to be orally active, and can serve as an example of an anti-catabolic agent. Alendronate (Alen) is a bisphosphonate that is currently used to treat osteoporosis (e.g., Fosamax®, Merck & Co., Inc,), and can serve as an example of an anti-catabolic agent. Parathyroid hormone 1-34 (PTH) is an agent that can serve as an example of an anabolic agent. […]
RatLaps™ ELISA for C-telopeptide Fragments of Collagen Type I (CTX-I). […] Bone resorption (CTX-I) was quantitatively assessed in rat serum using the commercially available RatLaps™ ELISA KIT from Nordic Bioscience Diagnostics A/S (Herlev, Denmark) as recommended by the manufacturer.

[3] = system: bilaterally ovariectomized (OVX) rats; assay: Uterine mass and uterine mass to body weight ratio in OVX rats; format: in vivo, Sprague-Dawley female rats; details: for effect on uterine mass to body weight ratio: FIG. 9
Description: as §1
(§3) In vivo experiments were conducted in order to investigate the efficacy of compounds of the presently-disclosed subject matter. In all of the experiments, OVX and sham operated rats were randomly divided into groups of 5-7 animals. In all of the studies experimental groups included: i) Sham-operated control (euthanized six weeks post surgery as a pretreatment control), ii) OVX control (euthanized six weeks post surgery as a pretreatment control), iii) Sham control receiving vehicle, iv) OVX control receiving vehicle, v) OVX receiving 17-ethinyl estradiol (equimolar concentration with a selected test compound), vi) OVX receiving alendronate (1.6 mg/kg), and vii) OVX receiving parathyroid hormone 1-34 (PTH) (80 μg/kg). 17-ethinyl estradiol (17 EE) is a free estrogenic agent known to be orally active, and can serve as an example of an anti-catabolic agent. Alendronate (Alen) is a bisphosphonate that is currently used to treat osteoporosis (e.g., Fosamax®, Merck & Co., Inc,), and can serve as an example of an anti-catabolic agent. Parathyroid hormone 1-34 (PTH) is an agent that can serve as an example of an anabolic agent. All compounds and vehicle (1% DMSO in corn oil) were administered three times per week orally by gavage except for PTH which was administered via a subcutaneous injection in a volume of 0.5 ml/kg body mass thrice per week. Compound administration was initiated 6 weeks following surgery and lasted for 6 weeks (18 doses total).
(§4) Compounds of the presently-disclosed subject matter were orally administered to OVX rats at various doses. As indicated above all BTE's were administered three times per week for 6 weeks.
(§5) Following 6 weeks of treatment, blood was obtained from each animal via cardiac puncture following an overnight fast and animals were subsequently euthanized via carbon dioxide asphyxiation. Blood was centrifuged immediately and the obtained serum samples were aliquoted and stored at −70° C. prior to analysis. Uteri were removed and fresh weights were obtained. Uterine masses were normalized to body mass at the end of the experiment. The left and right femora and left and right tibiae were subsequently collected from each animal, cleaned of soft tissue, and stored in saline at 4° C. prior to analysis.
Uterine Mass and Body Weight. […] Uterine mass can be used to as a measure of estrogenic effect occurring in a tissue outside the bone in response to treatment with a test compound or composition. Generally, a lower uterine mass can be associated with a decreased risk of adverse side effects associated with the test compound or composition. A ratio of uterine mass to body weight can be used to correct for any increase in uterine size attributable to the relative size of the individual animal. Body weight and/or uterine mass also serve as an indirect measures of toxicity of a test compound.

[4] = system: bilaterally ovariectomized (OVX) rats; assay: Regional femoral density via Archimedes' Principle; format: in vivo, Sprague-Dawley female rats
Description: as §1, §3
as §5, with “The left and right femora and left and right tibiae were subsequently collected from each animal, cleaned of soft tissue, and stored in saline at 4° C. prior to analysis.” left out
Regional Femoral Density via Archimedes' Principle. […] Briefly, each femur was measured with a Cen-Tech Digital Caliper and a cut was made from each end at 20% of the length of the femur plus half the width of the blade. Subsequently, the bone marrow was washed out of the femoral diaphysis and the Archimedes density for each of the three femoral regions was determined as described above.

[5] = system: bilaterally ovariectomized (OVX) rats; assay: Femoral density via Archimedes' Principle (whole bone); format: in vivo, Sprague-Dawley female rats; details: right femora
Description: as §1, §3
Following 6 weeks of treatment, blood was obtained from each animal via cardiac puncture following an overnight fast and animals were subsequently euthanized via carbon dioxide asphyxiation. Blood was centrifuged immediately and the obtained serum samples were aliquoted and stored at −70° C. prior to analysis. Uteri were removed and fresh weights were obtained. […]
Femoral Density via Archimedes' Principle. […] Densities were determined using Archimedes' Principle according to the following formula: density=[mass of hydrated femur/(mass of hydrated femur−mass of hydrated femur submerged in water)]×density of distilled water at a given temperature (See Keenan, et al. Comparison of bone density measurement techniques: DXA and Archimedes' principle. J Bone Miner Res 1997; 12:1903-7.). […]

[6] = Body weight of OVX rats during treatment; format: in vivo, Sprague-Dawley female rats
Description: as §1, §3, §4, §5
Uterine Mass and Body Weight. […]

[7] = system: bilaterally ovariectomized (OVX) rats; assay: Bone mechanical competence indentation test; format: in vivo, Sprague-Dawley female rats; details: proximal tibial metaphysis, present-tense statement, no data
Description: as §1
as §2, with “agent.” for “agent. Alendronate (Alen) is a bisphosphonate that is currently used to treat osteoporosis (e.g., Fosamax®, Merck & Co., Inc,), and can serve as an example of an anti-catabolic agent. Parathyroid hormone 1-34 (PTH) is an agent that can serve as an example of an anabolic agent.”

[8] = system: ICR Swiss mice; assay: Periosteal bone formation in mouse calvarial injection model; format: in vivo; details: subcutaneous over calvariae; histomorphometry; present-tense statement, no data
Description: Stimulation of Periosteal Bone Formation in a Mouse Calvarial Injection Model. The anabolic (bone formation) potential of compounds of the presently-disclosed subject matter are evaluated in the mouse calvarial injection model. Briefly, 4-week-old ICR Swiss mice are injected subcutaneously over the surface of the calvariae with compounds of the presently-disclosed subject matter at concentrations of 0, 1, 3, and 10 mg/kg/day for 5 days (twice a day). Microtubule inhibitor TN-16 (5 mg/kg/day for 2 days, twice a day) are used as a positive control. Mice are sacrificed two weeks after the injections are completed. Dissected calvarial samples are fixed in 10% phosphate-buffered formalin for 2 days, decalcified in 10% EDTA for 2 weeks and then embedded in paraffin. Histological sections are cut and stained with H&E and orange G. New woven bone formation (new bone area) is quantified by histomorphometry using the OsteoMeasure system (OsteoMetrics Inc., Atlanta, Ga.).

[9] = system: bilaterally ovariectomized (OVX) rats; assay: Rat Osteocalcin EIA (serum); format: in vivo, Sprague-Dawley female rats; details: versus OVX controls; FIG. 17
Description: as §1
(§6) In vivo experiments were conducted in order to investigate the efficacy of compounds of the presently-disclosed subject matter. In all of the experiments, OVX and sham operated rats were randomly divided into groups of 5-7 animals. […]
Rat Osteocalcin EIA. […] Rat serum osteocalcin levels were measured using the Rat Osteocalcin EIA Kit from Biomedical Technologies, Incorporated (Stoughton, Mass.) as recommended by the manufacturer.

[10] = system: bilaterally ovariectomized (OVX) rats; assay: Volume fraction, ex vivo micro-computed tomography of tibia; format: in vivo, Sprague-Dawley female rats; details: for bone density by trabecular volume fraction: ex vivo micro-CT, compared to OVX animals, FIG. 14; for bone density in three-dimensional micro-CT images: reconstructed images, FIG. 15
Description: as §1, §3, §5
Volume Fraction—Ex vivo micro-computed tomography (μCT). Volume fraction is a representative value for the amount of bone that occupies a given volume or space. […]

[11] = system: bilaterally ovariectomized (OVX) rats; assay: Lipid metabolism (total cholesterol, HDL, LDL) in rat serum; format: in vivo, Sprague-Dawley female rats; details: present-tense statement, no data
Description: as §1, §6
Quantitative Determination of Lipid Metabolism (Total Cholesterol HDL, and LDL) in Rat Serum. Total cholesterol, high-density lipoprotein (HDL), and low-density lipoprotein (LDL) were quantitatively determined in the serum of rats in order to evaluate the extraosseous effects of estrogen treatment on lipid metabolism. […]

[12] = OVX rats, oral, test compounds 25 or 250 μg/kg, 17-ethinyl estradiol equimolar, 3 times per week for 6 weeks, FIG. 8
[13] = OVX rats, oral, test compounds 25 or 250 μg/kg, 17-ethinyl estradiol equimolar, 3 times per week for 6 weeks
[14] = proximal and distal left femur, FIGS. 5 and 6
[15] = oral 3 times per week for 6 weeks, FIG. 1
[16] = proximal and distal left femur and left femoral diaphysis, oral 25 or 250 μg/kg, FIGS. 11, 12, 13
[17] = oral 25 or 250 μg/kg, 3 times per week for 6 weeks, FIG. 7

Structure (SMILES) | Binding Index [1] | production of CTX-I (bone resorption) [2] | effect on uterine mass [3, 12] | effect on uterine mass to body weight ratio [3, 13] | regional bone density [4, 14] | whole bone density ([5]; FIG. 4) | effect on uterine mass ([3]; rat, in vivo, po) | effect on body weight [6, 15] | regional bone density [4, 16] | bone strength [7] | whole bone density ([5]; oral 25 or 250 μg/kg, FIG. 10) | new bone area [8] | serum osteocalcin levels [9] | effect on body weight [6, 17] | bone density by trabecular volume fraction [10] | bone density in three-dimensional micro-CT images [10] | effect on lipid metabolism [11]
C[C@]12CC[C@@H]3c4ccc(O)cc4CC[C@H]3[C@@H]1CC[C@@H]2O [17,β-estradiol] | −8 | – | – | – | – | – | – | – | – | – | – | – | – | – | – | – | –
C#C[C@]1(O)CC[C@H]2[C@@H]3CCc4cc(O)ccc4[C@H]3CC[C@@]21C [17-ethinyl estradiol, reference compound] | – | decreased the production of CTX-1 to below sham levels | induced an increase | induced an increase | – | – | – | – | – | – | – | – | – | – | – | – | –
COc1ccc(N)c(O)c1C(N)=O [BTA-2] | – | – | – | – | not significantly effected | not significantly effected | no effect | no effect | – | – | – | – | – | – | – | – | –
NC(=O)c1c(OCc2ccccc2)ccc(N)c1O [BTA-3] | – | – | – | – | not significantly effected | not significantly effected | no effect | no effect | – | – | – | – | – | – | – | – | –
CCCCOP(=O)(OCCCC)Oc1ccc2c(c1)CCC1C2CC[C@]2(C)C1CC[C@H]2OCCC(=O)Nc1ccc(OC)c(C(N)=O)c1O (stereo partly drawn) [Formula 66] | – | do not inhibit | limited or no effect | limited or no effect | – | – | – | – | increased | increase | in the same ranges as those animals receiving 17-ethinyl estradiol (17 EE), Alendronate (Alen), or Parathyroid hormone 1-34 (PTH) | increase | lower than in OVX controls | limited or no effect | increased | affected an increase | limited or no effect
COc1ccc(NC(=O)CCO[C@@H]2CCC3C4CCc5cc(OP(=O)(OCc6ccccc6)OCc6ccccc6)ccc5C4CC[C@]32C)c(O)c1C(N)=O (stereo partly drawn) [Formula 67] | – | do not inhibit | limited or no effect | limited or no effect | – | – | – | – | increased | increase | in the same ranges as those animals receiving 17-ethinyl estradiol (17 EE), Alendronate (Alen), or Parathyroid hormone 1-34 (PTH) | increase | lower than in OVX controls | limited or no effect | increased | affected an increase | limited or no effect
